Key:
Assay in all cases: liposome co-sedimentation, anti-Sec2 western blot
Format in all cases: binding
Sec2p [1] = target: T1, Sec2p (Saccharomyces cerevisiae, UniProt P17065); settings: read-out: approximate Kd; GST-Sec2p; 0.05-0.5 mM liposomes with 10 mol% PI4P; PBS, 0.4 mg/ml BSA, 25 °C
T1 sequence (P17065 1-759): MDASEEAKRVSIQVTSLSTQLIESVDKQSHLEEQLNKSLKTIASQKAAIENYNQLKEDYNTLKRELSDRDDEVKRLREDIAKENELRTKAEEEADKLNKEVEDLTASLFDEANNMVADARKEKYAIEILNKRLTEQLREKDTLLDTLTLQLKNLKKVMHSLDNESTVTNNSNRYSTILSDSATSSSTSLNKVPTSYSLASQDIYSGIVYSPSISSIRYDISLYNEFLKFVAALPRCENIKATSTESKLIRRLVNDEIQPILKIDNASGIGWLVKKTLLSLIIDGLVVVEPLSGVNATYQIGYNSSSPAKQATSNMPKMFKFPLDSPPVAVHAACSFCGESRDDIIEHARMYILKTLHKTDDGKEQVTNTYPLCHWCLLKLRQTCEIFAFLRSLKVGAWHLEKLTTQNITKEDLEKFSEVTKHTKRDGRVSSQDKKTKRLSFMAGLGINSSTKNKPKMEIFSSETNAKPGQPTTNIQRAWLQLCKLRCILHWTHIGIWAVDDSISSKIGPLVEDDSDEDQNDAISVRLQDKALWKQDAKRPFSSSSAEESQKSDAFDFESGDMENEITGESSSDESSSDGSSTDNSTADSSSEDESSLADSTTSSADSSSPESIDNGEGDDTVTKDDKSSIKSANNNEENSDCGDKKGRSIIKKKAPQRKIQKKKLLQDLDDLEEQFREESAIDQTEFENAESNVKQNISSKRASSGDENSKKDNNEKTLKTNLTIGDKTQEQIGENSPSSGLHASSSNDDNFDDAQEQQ

Sec2p [2] = target: T1, Sec2p; settings: GST-Sec2; liposomes with 10 mol% PI4P; PBS, 0.4 mg/ml BSA, 25 °C
Sec2p [3] = target: T1, Sec2p; settings: GST-Sec2; liposomes with 10 mol% PI4P; PBS, 0.4 mg/ml BSA, 25 °C; remark: listed apart in the source
Sec2p [4] = target: T1, Sec2p; settings: GST-Sec2; liposomes with 10 mol% PI4P; PBS, 0.4 mg/ml BSA, 25 °C; remark: listed apart in the source

Substance: PI4P
- Kd (Sec2p [1]): ~185 µM
- PI4P-binding, % of wildtype (Sec2p [2]): ~ 10%
- PI4P-binding affinity, % of wildtype (Sec2p [3]): ~ 30%
- PI4P-binding affinity, % of wildtype (Sec2p [4]): ~ 30%

— article PMC2877039 (Developmental cell, 2010)
